This note sets out measurements from patent US11566007B2, “Ras inhibitors” (Revolution Medicines, Inc., priority 2019, dated 2023).

Test [1] has as its target NRAS Q61R (Homo sapiens (Human), UniProt P01111+P62937, Q61R). Nature of the test: Ras-Raf (BRAF RBD) disruption / FRET / MOA assay, NRAS Q61R. The note with it: NRAS Q61R; Ras-Raf disruption/FRET/MOA assay; read-out: IC50* NRAS Q61R FRET data. It is filed as biochemical. Summed up: (§1)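 TR-FRET disruption of nucleotide-loaded Ras binding to BRAF RBD via compound-driven ternary complex with cyclophilin A. Compound as 10-point 3-fold series from 30 μM final, 3 h at 25° C, then anti-His Eu-W1024 (10 nM) and anti-GST allophycocyanin (50 nM) for 1.5 h. IC50 from decreased FRET ratio versus DMSO.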

In test [2] the target is KRAS G12S (Homo sapiens (Human), UniProt P01116+P62937, G12S). In words: Ras-Raf (BRAF RBD) disruption / FRET / MOA assay, KRAS G12S. In kind it is biochemical. The following applies: Ras-Raf disruption/FRET/MOA assay; class symbols; read-out: KRAS G12S FRET data IC50. The method in brief: (§2)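 Ras:RAF disruption was scored as a fall in TR-FRET ratio relative to DMSO. Compound ranged in 3-fold steps over 10 points from 30 μM final; incubation ran 3 h at 25° C, detection antibodies a further 1.5 h. Reported as IC50.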

The target of test [3] is KRAS G13D (Homo sapiens (Human), UniProt P01116+P62937, G13D). Nature of the test: Ras-Raf (BRAF RBD) disruption / FRET / MOA assay, KRAS G13D. It is filed as biochemical. The note with it: read-out: IC50* KRAS G13D FRET data. The method in brief:
as §2

In test [4] the target is NRAS Q61K (Homo sapiens (Human), UniProt P01111+P62937, Q61K). In words: Ras-Raf (BRAF RBD) disruption / FRET / MOA assay, NRAS Q61K. The note with it: NRAS Q61K; Ras-Raf disruption/FRET/MOA assay; read-out: IC50* NRAS Q61K FRET data. It is filed as biochemical. Summed up:
as §1

Test [5] concerns NCI-H358 cells (K-Ras G12C). In words: Potency assay: pERK in NCI-H358 cells. It is filed as cell-based, human. The note with it: Homo sapiens, NCI-H358; H358 KRAS G12C; read-out: pERK EC50. Summed up: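 Compounds are dosed as ten 3-fold dilutions from a 10 mM DMSO stock, in duplicate, and left on cells for 4 h at 37 °C, 5% CO2. Phospho-ERK1/2 is then quantified by AlphaLISA SureFire Ultra or In-Cell Western, and IC50 is derived from a 4-parameter sigmoid against log concentration.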

The target in test [6] is NRAS WT (Homo sapiens (Human), UniProt P01111+P62937). Nature of the test: Ras-Raf (BRAF RBD) disruption / FRET / MOA assay, NRAS WT. It is filed as biochemical. The following applies: read-out: IC50* NRAS WT FRET data. The method in brief: as §1
Test [7] has as its target KRAS G12D (Homo sapiens (Human), UniProt P01116+P62937, G12D). Nature of the test: Ras-Raf (BRAF RBD) disruption / FRET / MOA assay, KRAS G12D. In kind it is biochemical. The following applies: Ras-Raf disruption/FRET/MOA assay; class symbols; read-out: KRAS G12D FRET data IC50. Summed up: as §2
In test [8] the target is KRAS Q61H (Homo sapiens (Human), UniProt P01116+P62937, Q61H). Nature of the test: Ras-Raf (BRAF RBD) disruption / FRET / MOA assay, KRAS Q61H. In kind it is biochemical. The note with it: Ras-Raf disruption/FRET/MOA assay; class symbols; read-out: KRAS Q61H FRET data IC50. Summed up:
as §1

The target in test [9] is K-Ras G12C (Homo sapiens (Human), UniProt P01116+P62937, G12C). Nature of the test: Ras-Raf (BRAF RBD) disruption / FRET / MOA assay, KRAS G12C. It is filed as biochemical. The note with it: KRAS G12C; Ras-Raf disruption/FRET/MOA assay; read-out: IC50* KRAS G12C FRET data. Summed up:
as §2

Test [10] addresses KRAS G12V (Homo sapiens (Human), UniProt P01116+P62937, G12V). In words: Ras-Raf (BRAF RBD) disruption / FRET / MOA assay, KRAS G12V. In kind it is biochemical. The following applies: read-out: IC50* KRAS G12V FRET data. The method in brief:
as §2

For test [11], the target named is NRAS G12C (Homo sapiens (Human), UniProt P01111+P62937, G12C). Nature of the test: Ras-Raf (BRAF RBD) disruption / FRET / MOA assay, NRAS G12C. In kind it is biochemical. The following applies: read-out: IC50* NRAS G12C FRET data. The method in brief:
as §2

The target in test [12] is KRAS WT (Homo sapiens (Human), UniProt P01116+P62937). Nature of the test: Ras-Raf (BRAF RBD) disruption / FRET / MOA assay, KRAS WT. In kind it is biochemical. The following applies: read-out: IC50* KRAS WT FRET data. The method in brief:
as §2

Test [13] has as its target K-Ras G13C (Homo sapiens (Human), UniProt P01116+P62937, G13C). In words: Ras-Raf (BRAF RBD) disruption / FRET / MOA assay, KRAS G13C. In kind it is biochemical. The following applies: KRAS G13C; Ras-Raf disruption/FRET/MOA assay; read-out: IC50* KRAS G13C FRET data. The method in brief: as §2

Several values for one entry are separate records, joined by “and”; a condition that tells them apart may be missing. Identical values can stand only once.

Sequence of NRAS WT (P01111 whole entry): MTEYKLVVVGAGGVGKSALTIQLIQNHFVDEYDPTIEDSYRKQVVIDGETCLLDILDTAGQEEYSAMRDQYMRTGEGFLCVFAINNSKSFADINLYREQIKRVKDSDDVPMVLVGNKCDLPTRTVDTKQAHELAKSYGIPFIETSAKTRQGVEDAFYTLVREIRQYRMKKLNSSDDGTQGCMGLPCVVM
Sequence of NRAS WT (P62937 whole entry): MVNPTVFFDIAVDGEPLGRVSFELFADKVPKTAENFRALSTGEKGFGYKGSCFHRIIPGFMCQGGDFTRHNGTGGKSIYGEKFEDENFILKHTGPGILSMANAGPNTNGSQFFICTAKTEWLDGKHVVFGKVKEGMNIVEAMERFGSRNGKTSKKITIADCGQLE
Sequence of NRAS Q61K (P01111 whole entry Q61K): as the sequence (P01111 whole entry) above, with Q61K counted along it
Sequence of NRAS Q61K (P62937 whole entry): as the sequence (P62937 whole entry) above
Sequence of KRAS WT (P01116-2 other isoform, or with tags, fused parts or gaps): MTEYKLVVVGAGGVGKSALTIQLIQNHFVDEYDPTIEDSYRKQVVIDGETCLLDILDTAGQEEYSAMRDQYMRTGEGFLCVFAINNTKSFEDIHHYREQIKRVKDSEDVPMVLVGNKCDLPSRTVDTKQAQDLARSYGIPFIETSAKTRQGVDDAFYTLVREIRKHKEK
Sequence of KRAS WT (P62937 whole entry): as the sequence (P62937 whole entry) above
Sequence of K-Ras G13C (P01116-2 other isoform, or with tags, fused parts or gaps G13C): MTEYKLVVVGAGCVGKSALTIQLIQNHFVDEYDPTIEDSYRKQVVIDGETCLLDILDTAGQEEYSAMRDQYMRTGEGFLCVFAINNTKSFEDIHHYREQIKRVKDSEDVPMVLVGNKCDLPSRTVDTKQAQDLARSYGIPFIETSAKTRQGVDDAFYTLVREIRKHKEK
Sequence of K-Ras G13C (P62937 whole entry): as the sequence (P62937 whole entry) above
Sequence of K-Ras G12C (P01116-2 other isoform, or with tags, fused parts or gaps G12C): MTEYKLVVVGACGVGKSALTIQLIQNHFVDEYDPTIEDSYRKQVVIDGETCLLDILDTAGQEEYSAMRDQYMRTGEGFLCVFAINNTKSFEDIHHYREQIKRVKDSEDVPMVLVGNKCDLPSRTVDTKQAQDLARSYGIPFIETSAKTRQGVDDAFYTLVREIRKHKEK
Sequence of K-Ras G12C (P62937 whole entry): as the sequence (P62937 whole entry) above
Sequence of KRAS G12D (P01116-2 other isoform, or with tags, fused parts or gaps G12D): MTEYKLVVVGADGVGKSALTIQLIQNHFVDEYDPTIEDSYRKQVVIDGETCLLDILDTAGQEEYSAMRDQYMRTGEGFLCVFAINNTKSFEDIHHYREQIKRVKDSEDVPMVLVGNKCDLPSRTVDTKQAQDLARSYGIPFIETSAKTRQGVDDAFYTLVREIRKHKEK
Sequence of KRAS G12D (P62937 whole entry): as the sequence (P62937 whole entry) above
Sequence of KRAS G13D (P01116-2 other isoform, or with tags, fused parts or gaps G13D): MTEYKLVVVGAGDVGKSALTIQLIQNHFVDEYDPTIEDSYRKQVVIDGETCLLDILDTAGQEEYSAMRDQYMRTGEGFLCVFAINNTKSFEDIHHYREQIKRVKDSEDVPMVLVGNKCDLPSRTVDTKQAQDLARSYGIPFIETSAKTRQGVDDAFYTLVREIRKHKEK
Sequence of KRAS G13D (P62937 whole entry): as the sequence (P62937 whole entry) above
Sequence of KRAS Q61H (P01116-2 other isoform, or with tags, fused parts or gaps Q61H): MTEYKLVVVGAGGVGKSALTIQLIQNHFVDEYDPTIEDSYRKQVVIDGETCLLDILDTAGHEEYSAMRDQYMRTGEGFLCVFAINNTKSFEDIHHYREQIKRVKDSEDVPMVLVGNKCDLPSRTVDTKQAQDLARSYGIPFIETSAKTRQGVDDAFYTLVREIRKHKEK
Sequence of KRAS Q61H (P62937 whole entry): as the sequence (P62937 whole entry) above
Sequence of KRAS G12S (P01116-2 other isoform, or with tags, fused parts or gaps G12S): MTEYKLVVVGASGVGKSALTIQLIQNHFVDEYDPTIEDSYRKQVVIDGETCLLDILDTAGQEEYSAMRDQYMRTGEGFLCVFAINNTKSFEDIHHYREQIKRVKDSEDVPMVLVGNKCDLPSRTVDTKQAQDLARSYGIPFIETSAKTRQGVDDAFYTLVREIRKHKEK
Sequence of KRAS G12S (P62937 whole entry): as the sequence (P62937 whole entry) above
Sequence of KRAS G12V (P01116-2 other isoform, or with tags, fused parts or gaps G12V): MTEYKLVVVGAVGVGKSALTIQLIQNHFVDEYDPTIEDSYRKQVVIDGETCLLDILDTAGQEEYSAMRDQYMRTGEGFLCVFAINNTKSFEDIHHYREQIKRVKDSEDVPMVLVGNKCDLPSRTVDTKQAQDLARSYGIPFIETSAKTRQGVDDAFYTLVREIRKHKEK
Sequence of KRAS G12V (P62937 whole entry): as the sequence (P62937 whole entry) above
Sequence of NRAS Q61R (P01111 whole entry Q61R): as the sequence (P01111 whole entry) above, with Q61R counted along it
Sequence of NRAS Q61R (P62937 whole entry): as the sequence (P62937 whole entry) above
Sequence of NRAS G12C (P01111 whole entry G12C): as the sequence (P01111 whole entry) above, with G12C counted along it
Sequence of NRAS G12C (P62937 whole entry): as the sequence (P62937 whole entry) above

A word on the IC50: it is the concentration that inhibits the measured activity by half. What is called EC50 is the concentration giving half of the maximal effect. In the case of `C=CC(=O)N1CCO[C@@H]2CCN(C(=O)N(C)[C@H](C(=O)N[C@H]3Cc4nc(cs4)-c4ccc5c(c4)c(c(-c4cccnc4[C@H](C)OC)n5CC)CC(C)(C)COC(=O)[C@@H]4CCCN(N4)C3=O)C(C)C)CC21` (stereo partly shown) [Example A596], the IC50 fell in the range of 10 to 100 nM in test [1]; 10 to 100 nM in [2]; 100 to 1000 nM in test [3]; 10 to 100 nM in test [4]; 10 to 100 nM in [6]; 100 to 1000 nM in test [7]. In addition, the IC50 in [8] was 10 to 100 nM; in test [9], 10 to 100 nM; in test [10], 100 to 1000 nM; in test [11], 10 to 100 nM; in test [12], above 10000 nM; in test [13], 100 to 1000 nM. In addition, in test [5], the EC50 was below 5000 nM.

`C=CC(=O)C1C[C@@H](C(=O)N(C)[C@H](C(=O)N[C@H]2Cc3cc(O)cc(c3)-c3ccc4c(n3)c(c(-c3ccccc3CCOC)n4CC)CC(C)(C)COC(=O)[C@@H]3CCCN(N3)C2=O)C(C)C)CN1` (stereo partly shown) [Example A211]: the IC50 in test [1] is above 10000 nM; in [2], 1 µM to 10 µM and > 10 µM (3×); in test [3] it was above 10000 nM; in [4], 1000 to 10000 nM; in [6] it was 1000 to 10000 nM; in [7], above 10000 nM. Besides, the IC50 in test [8] was 1000 to 10000 nM; in [9] it was 100 nM to 1 µM and 1 µM to 10 µM and > 10 µM (2×); in test [10] it was 1 µM to 10 µM and > 10 µM (3×); in test [11] it was 100 nM to 1 µM and 1 µM to 10 µM and > 10 µM (2×); in test [12], above 10000 nM; in [13] it was above 10000 nM. For the same compound, in [5], the half-maximal effective concentration (EC50) is below 5000 nM.

For the compound `CO[C@@H](C)c1ncc(N2CCN(C)CC2)cc1-c1c2c3cc(ccc3n1CC(F)(F)F)-c1cccc(c1)C[C@H](NC(=O)[C@H](C(C)C)N(C)C(=O)C1(F)CCN(C(=O)C#CC(C)(C)N(C)C)CC1)C(=O)N1CCC[C@H](N1)C(=O)OCC(C)(C)C2` (atropisomer, axis not shown) [Example A542, 1-(4-(dimethylamino)-4-methylpent-2-ynoyl)-4-fluoro-N-((2S)-1-(((6^3S,4S)-1^2-(2-((S)-1-methoxyethyl)-5-(4-methylpiperazin-1-yl)pyridin-3-yl)-10,10-dimethyl-5,7-dioxo-1^1-(2,2,2-trifluoroethyl)-6^1,6^2,6^3,6^4,6^5,6^6-hexahydro-1^1H-8-oxa-1(5,3)-indola-6(1,3)-pyridazina-2(1,3)-benzenacycloundecaphane-4-yl)amino)-3-methyl-1-oxobutan-2-yl)-N-methylpiperidine-4-carboxamide], the IC50 was in the range of 10 to 100 nM in test [1]; 10 to 100 nM in test [2]; 10 to 100 nM in test [3]; 10 to 100 nM in [4]; 10 to 100 nM in test [6]; 100 to 1000 nM in [7]. In addition, the IC50 was 10 to 100 nM in test [8]; below 10 nM in test [9]; 10 to 100 nM in test [10]; below 10 nM in [11]; 10 to 100 nM in [12]; below 10 nM in test [13]. Further, the EC50 in [5] was below 5000 nM.

Regarding `C=CC(=O)N1CCO[C@H]2CCN(C(=O)N(C)[C@H](C(=O)N[C@H]3Cc4nc(cs4)-c4ccc5c(c4)c(c(-c4cccnc4[C@H](C)OC)n5CC)CC(C)(C)COC(=O)[C@@H]4CCCN(N4)C3=O)C(C)C)C[C@@H]21` (atropisomer, axis not shown) [Example A609], the half-inhibitory concentration (IC50) in test [1] was 10 to 100 nM; in [2], 10 to 100 nM; in [3], 100 to 1000 nM; in test [4], 10 to 100 nM; in [6], 10 to 100 nM; in test [7], 100 to 1000 nM. Moreover, the IC50 in test [8] was 10 to 100 nM; in [9], below 10 nM; in test [10], 10 to 100 nM; in test [11] it was below 10 nM; in test [12] it was 10 to 100 nM; in [13], 10 to 100 nM. For the same compound, the EC50 in test [5] is below 5000 nM.
